This passage reports Ki and 2aPTT results from ChEMBL document CHEMBL1681658, “Design, synthesis and SAR of a series of 1,3,5-trisubstituted benzenes as thrombin inhibitors” (Bioorg Med Chem Lett, 2011).

For experiment [1], the target named is Prothrombin (Homo sapiens, UniProt P00734). The experiment is described as follows: Inhibition of thrombin.
The nature of experiment [2]: Inhibition of trypsin.
Experiment [3] relates to Plasma. Nature of the experiment: Anticoagulant activity in human plasma assessed as concentration required to double activated partial thromboplastin time. It is filed as functional.

What is called pKi is the Ki on a negative log10 scale, so that one unit is a factor of ten. A high value points to a small Ki.

SMILES strings stand for the structures. pKi: −log10 of the molar value.

With `Cc1cc(OCCc2nc[nH]c2C)cc(C(=O)N(CC(C)C)CC(C)C)c1`, the pKi in experiment [1] was 8.46; in experiment [2] it was 5.59. For the same molecule, the 2aPTT in experiment [3] stood at 4.1 µM.

With `Cc1cc(OCC(F)(F)c2cc(C)ccn2)cc(C(=O)N(CC(C)C)CC(C)C)c1`, the pKi in experiment [1] is 7.43; in experiment [2], under 4.00.

On to `Cc1cc(OCCc2ccccc2CN)cc(C(=O)N(CC(C)C)CC(C)C)c1`, for which the figures for the pKi in experiment [1] and in experiment [2] were 8.54 and 4.54, respectively. In addition, the 2aPTT in experiment [3] was determined as 3.6 µM.

For the molecule `COc1ccc(Cl)cc1CCOc1cc(C)cc(C(=O)N(CC(C)C)CC(C)C)c1`, the pKi was 7.47 in experiment [1] and under 4.00 in experiment [2].

For the molecule `Cc1cc(OCCc2ccccc2-n2cnnn2)cc(C(=O)N(CC(C)C)CC(C)C)c1`, the pKi in experiment [1] was 8.77; in experiment [2], 4.43. For the same molecule, the 2aPTT in experiment [3] stood at 4.4 µM.

Consider `Cc1cc(OCCc2cc(Cl)ccc2-n2cncn2)cc(C(=O)N(CC(C)C)CC(C)C)c1`, for which the pKi in experiment [1] was 9.03; in experiment [2] it was 4.55. For the same molecule, in experiment [3], the 2aPTT was 7.1 µM.

Take `COC(=O)COc1ccc(Cl)cc1CCOc1cc(C)cc(C(=O)N(CC(C)C)CC(C)C)c1`: the negative logarithm of the Ki (pKi) is 9.14 in experiment [1] and under 4.00 in experiment [2]. In addition, the 2aPTT in experiment [3] was over 8.2 µM.

As for `Cc1cc(OCCc2cc(Cl)ccc2OCC(=O)NC2CCCNC2)cc(C(=O)N(CC(C)C)CC(C)C)c1` (stereo unspecified), the pKi in experiment [1] is 8.80; in experiment [2] it was 4.11. Also, the 2aPTT in experiment [3] is over 8.2 µM.

As to `Cc1cc(C(=O)NCc2cc(Cl)ccc2CN)cc(C(=O)N(CC(C)C)CC(C)C)c1`, the pKi in experiment [1] is 9.17; in experiment [2], 3.95. Also, the 2aPTT in experiment [3] was 1.6 µM.

Consider `Cc1cc(C(=O)NCc2cc(Cl)ccc2-n2cncn2)cc(C(=O)N(CC(C)C)CC(C)C)c1`, for which the figures for the pKi in experiment [1] and in experiment [2] were 8.15 and under 4.00, respectively. Moreover, the 2aPTT in experiment [3] was 5.3 µM.

For the molecule `Cc1cc(C(=O)NCc2cc(Cl)ccc2-n2cnnn2)cc(C(=O)N(CC(C)C)CC(C)C)c1`, the pKi is 9.57 in experiment [1] and 4.54 in experiment [2]. In addition, the 2aPTT in experiment [3] turned out to be 1.2 µM.

Regarding `Cc1cc(C(=O)NCc2ccccc2-n2cnnn2)cc(C(=O)N(CC(C)C)CC(C)C)c1`, the figures for the negative logarithm of the Ki (pKi) in experiment [1] and in experiment [2] were 7.30 and under 4.00, respectively.

Consider `Cc1cc(C(=O)NCc2cc(Cl)ccc2-n2cnnn2)cc(-c2cnccc2N(C)C)c1`, for which the figures for the pKi in experiment [1] and in experiment [2] were 7.17 and 3.52, respectively.

For `CC(=O)c1ccncc1-c1cc(C)cc(C(=O)NCc2cc(Cl)ccc2-n2cnnn2)c1`, the pKi in experiment [1] is 7.07; in experiment [2] it was under 4.00.

Consider `Cc1cc(C(=O)NCc2cc(Cl)ccc2-n2cnnn2)cc(-c2cnccc2C(C)C)c1`, for which the negative-log Ki (pKi) in experiment [1] is 9.57; in experiment [2], under 4.00. Moreover, in experiment [3], the 2aPTT turned out to be 1.5 µM.

As to `Cc1cc(C(=O)NCc2cc(Cl)ccc2-n2cnnn2)cc(-c2c[n+]([O-])ccc2C(C)C)c1`, the pKi in experiment [1] is 9.11; in experiment [2], 3.32. Further, the 2aPTT in experiment [3] was found to be 0.38 µM.

`Cc1cc(C(=O)NCc2cc(Cl)ccc2-n2cnnn2)cc(C2CNCCC2CC(C)C)c1` (stereo unspecified): the pKi was 8.74 in experiment [1] and 3.56 in experiment [2]. Further, the 2aPTT in experiment [3] amounted to 1.42 µM.

On to `Cc1cc(NC2CCCCC2)cc(C(=O)NCc2cc(Cl)ccc2-n2cnnn2)c1`, for which the pKi in experiment [1] was 8.02; in experiment [2], under 4.00. In experiment [3], the 2aPTT is over 8.2 µM.

For `CC(=O)N(c1cc(C)cc(C(=O)NCc2cc(Cl)ccc2-n2cnnn2)c1)C1CCCCC1`, the pKi in experiment [1] is 8.39; in experiment [2], under 4.00. In experiment [3], the 2aPTT came out at 1.67 µM.

Regarding `Cc1cc(C(=O)NCc2cc(Cl)ccc2-n2cnnn2)cc(N(C2CCCCC2)S(C)(=O)=O)c1`, the pKi is 9.03 in experiment [1] and under 4.00 in experiment [2]. For the same molecule, in experiment [3], the 2aPTT stood at 0.87 µM.

With `Cc1cc(C(=O)NCc2cc(Cl)ccc2-n2cnnn2)cc(N(CCN)C2CCCCC2)c1`, the pKi is 8.80 in experiment [1] and 4.12 in experiment [2]. For the same molecule, in experiment [3], the 2aPTT is 1.48 µM.

Take `Cc1cc(C(=O)NCc2cc(Cl)ccc2-n2cnnn2)cc(N(C2CCCC2)S(C)(=O)=O)c1`: the values for the pKi in experiment [1] and in experiment [2] were 8.90 and under 4.00, respectively. For the same molecule, in experiment [3], the 2aPTT came to 0.75 µM.
